Consider one compound from US20240358727A1, “MICROSCALE THERMOPHORESIS TO EVALUATE CHANNEL LIPID INTERACTIONS AND METHODS OF TREATING NAV CHANNELS RELATED DISEASES” (Northeastern University, priority 2023, published 2024).

Assay [1] deals with T1, Nav1.5 WT (Homo sapiens, UniProt Q14524).
T1 construct: expressed in transfected cells; host or cells: HEK293T cells, lysed; unpurified lysate supernatant used
As to the kind of experiment: Microscale thermophoresis (MST) binding of diC8-PIP2 to GFP-tagged wild type Nav1.5 in cell lysate. On the procedure:
(§1) The method utilizes cell lysates obtained from transfected/infected cells that are lysed and incubated with varying concentrations of a water-soluble analogue of PIP2 commercially available as diC8-PI(4,5)P2, in a 384 well plate. Other phosphoinositides such as diC8PI(4)P of diC8PI(5)P can also be utilized. After a brief incubation (10-30 mins) samples are loaded onto capillary chips purchased from the company Nanotemper. Samples are run on the Nanotemper Monolith instrument. This instrument is advertised to detect green fluorescent protein (GFP) tagged proteins, however we have also used TFP (teal FP) tagged proteins. The instrument provides a short infra-red laser pulse which produces a short thermal gradient. Protein that is interacting with the lipid migrates differently through this thermal gradient and its movement is evaluated by the fluorescence of the GFP/TFP tag on the protein. Based on the concentration of the dic8-phosphoinositide, this resolves into a sigmoidal relationship that delivers an apparent affinity (Kd) value. A test ligand can be added to this assay at a known concentration that is at or close to its Kd for the channel. A shift in the channel's affinity for PIP2 in this assay can help indicate whether this test compound is a good drug candidate for further biological experiments.
(§2) Results. […]

Assay [2] has as its target T2, GFP-PHPLCδ (PIP2 biosensor) (Homo sapiens, UniProt P51178).
T2 construct: the pleckstrin homology domain of phospholipase C delta (GFP-PHPLCδ), a PIP2 biosensor; expressed in transfected cells; host or cells: cell lysate
T2 sequence (P51178 21-130 limits assumed): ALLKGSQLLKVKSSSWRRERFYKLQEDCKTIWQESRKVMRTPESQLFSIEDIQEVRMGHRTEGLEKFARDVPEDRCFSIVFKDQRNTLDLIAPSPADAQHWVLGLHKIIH
As to the kind of experiment: MST binding of diC8-PIP2 to GFP-tagged PHPLCδ1 (positive control). As for the experimental part:
as §1, §2

T1 sequence (Q14524 whole entry): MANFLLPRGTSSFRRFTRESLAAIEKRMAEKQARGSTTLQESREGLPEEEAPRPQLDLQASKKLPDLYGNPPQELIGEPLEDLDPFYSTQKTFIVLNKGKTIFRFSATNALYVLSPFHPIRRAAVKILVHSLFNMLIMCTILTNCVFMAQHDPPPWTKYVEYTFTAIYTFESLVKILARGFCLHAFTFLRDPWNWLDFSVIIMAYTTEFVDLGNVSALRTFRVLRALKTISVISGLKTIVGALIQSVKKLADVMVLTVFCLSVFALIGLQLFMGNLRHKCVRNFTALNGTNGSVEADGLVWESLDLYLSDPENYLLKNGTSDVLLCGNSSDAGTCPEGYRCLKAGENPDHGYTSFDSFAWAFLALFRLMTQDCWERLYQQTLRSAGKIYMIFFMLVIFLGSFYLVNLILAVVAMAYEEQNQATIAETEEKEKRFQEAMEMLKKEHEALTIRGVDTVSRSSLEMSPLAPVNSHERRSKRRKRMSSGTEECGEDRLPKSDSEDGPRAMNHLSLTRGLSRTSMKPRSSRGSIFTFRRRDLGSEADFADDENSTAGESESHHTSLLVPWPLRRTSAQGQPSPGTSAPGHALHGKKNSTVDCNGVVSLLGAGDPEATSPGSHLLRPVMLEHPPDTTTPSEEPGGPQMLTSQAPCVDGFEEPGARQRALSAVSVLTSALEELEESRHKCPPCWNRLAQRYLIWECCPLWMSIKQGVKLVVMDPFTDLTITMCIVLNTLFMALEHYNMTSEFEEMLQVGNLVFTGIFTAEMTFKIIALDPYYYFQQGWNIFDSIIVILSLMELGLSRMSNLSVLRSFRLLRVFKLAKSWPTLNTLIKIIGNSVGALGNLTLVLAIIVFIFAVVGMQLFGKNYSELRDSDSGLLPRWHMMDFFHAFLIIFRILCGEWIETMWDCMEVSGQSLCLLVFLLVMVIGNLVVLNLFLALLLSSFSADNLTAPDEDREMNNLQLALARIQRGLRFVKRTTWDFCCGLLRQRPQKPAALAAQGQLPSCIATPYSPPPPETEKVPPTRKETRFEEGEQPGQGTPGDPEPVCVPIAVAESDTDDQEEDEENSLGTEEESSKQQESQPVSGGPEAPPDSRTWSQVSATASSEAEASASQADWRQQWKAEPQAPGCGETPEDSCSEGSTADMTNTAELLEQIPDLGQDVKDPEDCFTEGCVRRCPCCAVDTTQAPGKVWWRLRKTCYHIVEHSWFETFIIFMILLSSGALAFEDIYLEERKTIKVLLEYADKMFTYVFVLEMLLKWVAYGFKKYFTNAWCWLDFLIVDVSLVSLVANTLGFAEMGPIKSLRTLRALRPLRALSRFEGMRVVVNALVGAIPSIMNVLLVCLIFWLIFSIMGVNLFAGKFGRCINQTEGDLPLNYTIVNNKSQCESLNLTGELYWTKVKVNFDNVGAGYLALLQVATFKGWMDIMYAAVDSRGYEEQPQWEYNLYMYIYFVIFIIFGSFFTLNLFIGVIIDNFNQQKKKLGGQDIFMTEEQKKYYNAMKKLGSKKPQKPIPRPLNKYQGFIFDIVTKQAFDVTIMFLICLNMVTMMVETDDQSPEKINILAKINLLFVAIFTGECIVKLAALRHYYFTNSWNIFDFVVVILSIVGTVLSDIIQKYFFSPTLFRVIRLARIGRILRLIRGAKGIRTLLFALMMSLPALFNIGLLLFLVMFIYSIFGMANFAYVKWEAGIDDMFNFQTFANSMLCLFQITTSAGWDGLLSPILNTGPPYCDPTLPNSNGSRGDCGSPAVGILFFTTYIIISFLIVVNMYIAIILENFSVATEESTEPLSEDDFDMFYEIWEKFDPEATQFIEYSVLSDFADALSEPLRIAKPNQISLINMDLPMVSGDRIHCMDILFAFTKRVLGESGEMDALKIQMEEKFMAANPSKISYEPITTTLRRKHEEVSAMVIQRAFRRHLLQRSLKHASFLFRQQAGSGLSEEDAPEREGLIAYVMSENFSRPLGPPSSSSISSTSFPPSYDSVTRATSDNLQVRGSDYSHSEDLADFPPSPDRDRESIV

With `CCCCCCCC(=O)OC[C@H](COP(=O)(O)O[C@@H]1[C@H](O)[C@H](O)[C@@H](OP(=O)(O)O)[C@H](OP(=O)(O)O)[C@H]1O)OC(=O)CCCCCCC` [diC8-PIP2], the Kd amounted to 45 ± 10 nM in assay [1] and 130 nM in assay [2].

As a reminder, the Kd is the free concentration of one partner at which half of the binding sites on the other are occupied at equilibrium, for simple one-to-one binding. Read a high Kd as a looser complex.
